# Biological target: T1, CYP1A2 (Homo sapiens, UniProt P05177)
# T1 construct: from tissue; host or cells: human liver microsomes
# T1 sequence (P05177 1-516): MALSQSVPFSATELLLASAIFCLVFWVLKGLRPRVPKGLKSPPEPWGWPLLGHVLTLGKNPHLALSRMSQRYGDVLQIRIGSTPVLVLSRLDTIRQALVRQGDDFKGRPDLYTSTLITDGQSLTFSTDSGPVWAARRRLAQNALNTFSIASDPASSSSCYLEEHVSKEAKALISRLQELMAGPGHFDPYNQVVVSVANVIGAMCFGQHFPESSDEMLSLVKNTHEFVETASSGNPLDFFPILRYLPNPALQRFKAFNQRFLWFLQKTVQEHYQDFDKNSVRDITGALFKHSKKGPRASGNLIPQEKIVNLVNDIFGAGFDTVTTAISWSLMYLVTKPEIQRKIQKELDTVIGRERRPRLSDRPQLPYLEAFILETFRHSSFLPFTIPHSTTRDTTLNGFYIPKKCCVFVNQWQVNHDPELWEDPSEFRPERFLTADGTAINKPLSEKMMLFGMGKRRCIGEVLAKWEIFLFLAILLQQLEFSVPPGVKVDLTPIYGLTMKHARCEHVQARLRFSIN
# Assay: Cytochrome P450 isozyme inhibitory activity test, CYP1A2
# Format: in vitro ADME
# Conditions: liver microsomes; human liver microsome
# Description: The inhibitory activities of the test compound on different subtypes of human cytochrome P450 isozymes were determined. The test compound, standard inhibitor (100× final concentration), and a mixed substrate working solution were prepared; the microsome frozen in −80° C. refrigerator was thawed. […]
structure (smiles),measurement,value
COCCN1C[C@@H](n2ccc(F)c2)[C@H](NC(=O)Nc2c(C)c(-c3cnc(C4(F)COC4)nc3)nn2-c2ccccc2)C1 [Compound of formula (I)],IC50 at 10 min,> 50 µM

# From patent publication US11708357B2, “Crystal form of pyrrolidinyl urea derivative and application thereof” (ZHANGZHOU PIEN TZE HUANG PHARMACEUTICAL CO., LTD., priority 2020, dated 2023)
